Patent publication US20070212408A1, “Stable Pharmaceutical Composition Containing Benzimidazole Derivatives and Method of Manufacturing the Same” (priority 2004, published 2007)

Experiments:
[1] = Storage stability test of inclusion complexes containing lansoprazole (Test Example 1), HPLC content; assay type: physicochemical; settings: 60° C., 75% RH
[2] = Storage stability test of inclusion complexes containing lansoprazole (Test Example 3), HPLC content; assay type: physicochemical; settings: 60° C., 75% RH, relative to initial content

Content after 1 wk (%) ([1]; 1 wk, relative to initial content, HPLC): 96.62%
Content after 2 wk (%) ([1]; 2 wk, relative to initial content, HPLC): 76.88%
Color Change after 4 wk ([1]; 4 wk): Dark brown
Content after 4 wk (%) ([1]; 4 wk, relative to initial content, HPLC): Not detected
Content after 1 wk (%) ([2]; 1 wk): 96.62%
Content after 2 wk (%) ([2]; 2 wk): 76.88%
Compound: Cc1c(OCC(F)(F)F)ccnc1C[S+]([O-])c1nc2ccccc2[nH]1 (stereo not drawn) [lansoprazole]
